Values after ≈ are worked out from the molar mass of the structure shown. Non-standard residues stand in square brackets, D forms with d. Residues, ends and D or L forms follow the SMILES beside them. Arg(Me2a) = CN(C)C(=N)NCCC[C@H](N)C(=O)O
Tests used:
Type in all cases: functional
Escherichia coli [1] = test: Antimicrobial activity against Escherichia coli ATCC 25922 incubated for 18 hrs at 37 degC by broth microdilution method; conditions: ATCC 25922, 18 h
Escherichia coli [2] = test: Antimicrobial activity against O-antigen lacking LPS containing wild type Escherichia coli BW25113 incubated for 18 hrs at 37 degC by broth microdilution method; conditions: BW25113, 18 h
Escherichia coli [3] = test: Antimicrobial activity against delta-waaG deletion mutant containing Escherichia coli BW25113 incubated for 18 hrs at 37 degC by broth microdilution method; conditions: BW25113, 18 h
Escherichia coli [4] = test: Antimicrobial activity against delta-sbmA deletion mutant containing Escherichia coli BW25113 incubated for 18 hrs at 37 degC by broth microdilution method; conditions: BW25113, 18 h

CC[C@H](C)[C@H](NC(=O)[C@@H](CCCNC(=N)N)NC(=O)[C@H](N)CCCNC(=N)N)C(=O)N[C@@H](CCCNC(=N)N)C(=O)N1CCC[C@H]1C(=O)N[C@@H](CCCNC(=N)N)C(=O)N1CCC[C@H]1C(=O)N1CCC[C@H]1C(=O)N[C@@H](CCCNC(=N)N)C(=O)N[C@@H](CC(C)C)C(=O)N1CCC[C@H]1C(=O)N[C@@H](CCCNC(=N)N)C(=O)N1CCC[C@H]1C(=O)N[C@@H](CCCNC(=N)N)C(=O)N1CCC[C@H]1C(=O)N[C@@H](CCCNC(=N)N)C(=O)N1CCC[C@H]1C(=O)N[C@@H](CC(C)C)C(=O)N1CCC[C@H]1C(=O)N[C@@H](Cc1ccc(O)cc1)C(=O)N1CCC[C@H]1C(=O)N[C@@H](CCCNC(=N)N)C(=O)N1CCC[C@H]1C(=O)O
MIC (Escherichia coli [1]): 4 µM (≈ 11.6 µg/mL) | MIC (Escherichia coli [2]): 4 µM (≈ 11.6 µg/mL) | MIC (Escherichia coli [3]): 2 µM (≈ 5.8 µg/mL) | MIC (Escherichia coli [4]): 16 µM (≈ 46.4 µg/mL)

CC[C@H](C)[C@H](NC(=O)[C@H](CCCNC(=N)N(C)C)NC(=O)[C@@H](N)CCCNC(=N)N)C(=O)N[C@@H](CCCNC(=N)N)C(=O)N1CCC[C@H]1C(=O)N[C@@H](CCCNC(=N)N)C(=O)N1CCC[C@H]1C(=O)N1CCC[C@H]1C(=O)N[C@@H](CCCNC(=N)N)C(=O)N[C@@H](CC(C)C)C(=O)N1CCC[C@H]1C(=O)N[C@@H](CCCNC(=N)N)C(=O)N1CCC[C@H]1C(=O)N[C@@H](CCCNC(=N)N)C(=O)N1CCC[C@H]1C(=O)N[C@@H](CCCNC(=N)N)C(=O)N1CCC[C@H]1C(=O)N[C@@H](CC(C)C)C(=O)N1CCC[C@H]1C(=O)N[C@@H](Cc1ccc(O)cc1)C(=O)N1CCC[C@H]1C(=O)N[C@@H](CCCNC(=N)N)C(=O)N1CCC[C@H]1C(=O)O (H-R[Arg(Me2a)]IRPRPPRLPRPRPRPLPYPRP-OH)
MIC (Escherichia coli [1]): 4 µM (≈ 11.7 µg/mL) | MIC (Escherichia coli [2]): 4 µM (≈ 11.7 µg/mL) | MIC (Escherichia coli [3]): 1 µM (≈ 2.93 µg/mL) | MIC (Escherichia coli [4]): 8 µM (≈ 23.4 µg/mL)

CC[C@H](C)[C@H](NC(=O)[C@H](CCCNC(=N)N)NC(=O)[C@@H](N)CCCNC(=N)N(C)C)C(=O)N[C@@H](CCCNC(=N)N)C(=O)N1CCC[C@H]1C(=O)N[C@@H](CCCNC(=N)N)C(=O)N1CCC[C@H]1C(=O)N1CCC[C@H]1C(=O)N[C@@H](CCCNC(=N)N)C(=O)N[C@@H](CC(C)C)C(=O)N1CCC[C@H]1C(=O)N[C@@H](CCCNC(=N)N)C(=O)N1CCC[C@H]1C(=O)N[C@@H](CCCNC(=N)N)C(=O)N1CCC[C@H]1C(=O)N[C@@H](CCCNC(=N)N)C(=O)N1CCC[C@H]1C(=O)N[C@@H](CC(C)C)C(=O)N1CCC[C@H]1C(=O)N[C@@H](Cc1ccc(O)cc1)C(=O)N1CCC[C@H]1C(=O)N[C@@H](CCCNC(=N)N)C(=O)N1CCC[C@H]1C(=O)O (H-[Arg(Me2a)]RIRPRPPRLPRPRPRPLPYPRP-OH)
MIC (Escherichia coli [1]): 2 µM (≈ 5.85 µg/mL) | MIC (Escherichia coli [2]): 2 µM (≈ 5.85 µg/mL) | MIC (Escherichia coli [3]): 0.5 µM (≈ 1.46 µg/mL) | MIC (Escherichia coli [4]): 8 µM (≈ 23.4 µg/mL)

CC[C@H](C)[C@H](NC(=O)[C@H](CCCNC(=N)N(C)C)NC(=O)[C@@H](N)CCCNC(=N)N(C)C)C(=O)N[C@@H](CCCNC(=N)N)C(=O)N1CCC[C@H]1C(=O)N[C@@H](CCCNC(=N)N)C(=O)N1CCC[C@H]1C(=O)N1CCC[C@H]1C(=O)N[C@@H](CCCNC(=N)N)C(=O)N[C@@H](CC(C)C)C(=O)N1CCC[C@H]1C(=O)N[C@@H](CCCNC(=N)N)C(=O)N1CCC[C@H]1C(=O)N[C@@H](CCCNC(=N)N)C(=O)N1CCC[C@H]1C(=O)N[C@@H](CCCNC(=N)N)C(=O)N1CCC[C@H]1C(=O)N[C@@H](CC(C)C)C(=O)N1CCC[C@H]1C(=O)N[C@@H](Cc1ccc(O)cc1)C(=O)N1CCC[C@H]1C(=O)N[C@@H](CCCNC(=N)N)C(=O)N1CCC[C@H]1C(=O)O (H-[Arg(Me2a)][Arg(Me2a)]IRPRPPRLPRPRPRPLPYPRP-OH)
MIC (Escherichia coli [1]): 8 µM (≈ 23.6 µg/mL) | MIC (Escherichia coli [2]): 8 µM (≈ 23.6 µg/mL) | MIC (Escherichia coli [3]): 2 µM (≈ 5.91 µg/mL) | MIC (Escherichia coli [4]): 16 µM (≈ 47.3 µg/mL)
